Results taken from ChEMBL document CHEMBL3301361, “Experimental in vitro DMPK and physicochemical data on a set of publicly disclosed compounds”.

Tests used:
[1] = in vitro; settings: SD, HW or BN, rat, plasma
[2] = physchem; settings: octan-1-ol/water
[3] = in vitro; settings: human, plasma

Structure (SMILES)	fraction unbound at 5 h [1]	logD ([2]; pH 7.4, LogD7.4)	fraction unbound at 5 h ([3]; PPB)	fraction unbound at 5 h [3]	logD ([2]; pH 7.4)
CCc1nc(N)nc(N)c1-c1ccc(Cl)cc1 [PYRIMETHAMINE]	0.069	2.31	0.0736		
CNCCCC12CCC(c3ccccc31)c1ccccc12 [MAPROTILINE]	0.0784	0.89	0.126		
CC(C)Oc1cc(Nc2nc(N[C@@H](C)c3ccc(F)cn3)nc(OC(CO)CO)c2Cl)n[nH]1	0.173	2.77	0.176		
CCOC(=O)Nc1ccc(NCc2ccc(F)cc2)nc1N [FLUPIRTINE]	0.22	2.22	0.16		
NC(=O)c1cc(C(N)=O)n(-c2cccc(-c3cc(C(F)(F)F)ccc3C(F)(F)F)c2)n1	0.0568	3.4	0.0328		
Clc1ccc2c(c1)C(N1CCNCC1)=Nc1ccccc1O2 [AMOXAPINE]	0.101	2.28	0.11		
CCn1nc(C)c(C(=O)N[C@@H](C)C(C)(C)C)c1NS(=O)(=O)c1ccc(C)cc1	0.0477	0.95	0.0163		
Cc1ccc(Sc2ccccc2CN(C)C)c(N)c1	0.0928	2.6	0.11		
Cc1ccsc1C(=CCCN1CCC[C@@H](C(=O)O)C1)c1sccc1C [TIAGABINE]	0.0836	1.49	0.051		
COc1ccccc1O[C@@H](c1ccccc1)[C@@H]1CNCCO1	0.768	0.9	0.309		
CN1CCc2cc(Cl)c(O)cc2[C@@H](c2ccccc2)C1 [SCH-23390]	0.17	2.5	0.0801		
C[C@@H]1CN(c2ccc3c(n2)NC(=O)CO3)[C@H](c2ccccc2)CO1	0.0928	2.75	0.0633		
COc1ncc(-c2ccccc2C(F)(F)CNC(=O)c2ccc(COCC(F)(F)F)nc2)cn1	0.129		0.0099		
Cc1nc(C(F)F)c(C(N)=O)nc1-c1ccc([C@H]2CC[C@H](CC(=O)O)CC2)cc1	0.0383		0.0544		
Cc1ccc(NC(=O)Nc2nnc(-c3ccncc3)s2)cc1	0.0064		0.0061		
O=C(CCCN1CC[Si](O)(c2cccc(C(F)(F)F)c2)CC1)c1ccc(F)cc1	0.0447		0.0409		
NC(=O)c1cncc(-c2ccc([C@H]3CC[C@H](CC(=O)O)CC3)cc2)n1	0.0063		0.035		
Cc1nc(C)c(-c2ccc([C@H]3CC[C@H](CC(N)=O)CC3)cc2)nc1C(N)=O	0.0556	2.7	0.129		
CN(Cc1cccc2ccccc12)c1cc(N2CCOCC2)nc(=O)[nH]1	0.0064		0.0568		
COc1ccc(NC(=O)c2ccc(C[S+](C)[O-])c3ccccc23)c(C(=O)NCC2CCOCC2)n1 (centres undefined)	0.0437			0.0544	
COc1cccc2c1c(NS(=O)(=O)c1ccc(Cl)s1)nn2Cc1cccc(CNC(C)=O)c1	0.0028		0.0066		
Cc1onc(-c2c(Cl)cccc2Cl)c1NC(=O)OCc1c(F)cccc1Cl	0.003		0.002		

Structure (SMILES)	fraction unbound at 5 h [1]	logD ([2]; pH 7.4, LogD7.4)	fraction unbound at 5 h ([3]; PPB)	fraction unbound at 5 h [3]	logD ([2]; pH 7.4)
Cc1cc2c(s1)Nc1ccccc1N=C2N1CCN(C)CC1 [OLANZAPINE]	0.124			0.107	2.19
O=C(O)c1c(O)c(Cc2ccc(Cl)cc2)nc2c3c(ccc12)CCCC3 [PSI-697]	0.0014		0.0007		
O=C(NCc1ccc(OC(F)(F)F)cc1)C1c2ccccc2C(=O)N1CCc1ccccn1 (centres undefined)	0.0447		0.0358		
N#C[C@@]1(NC(=O)[C@@H](N)Cc2cccs2)C[C@@H]1c1ccccc1	0.344	1.3	0.46		
O=C(NCc1ccccn1)c1cc(-c2ccccc2)nc2ccccc12	0.02		0.013		
OCCN1CCN(CCCN2c3ccccc3Sc3ccc(C(F)(F)F)cc32)CC1 [FLUPHENAZINE]	0.0119			0.0119	3.8
N#Cc1cc(S(=O)(=O)Nc2ncns2)ccc1Oc1ccc(C(F)(F)F)cc1-c1ccnnc1	0.0209		0.0059		
COc1ccccc1CN(C(C)=O)c1cnccc1Oc1ccccc1	0.101	3	0.069		
CCN(CC)S(=O)(=O)c1ccc(-c2cc(C(F)(F)F)ccc2OCC(=O)O)cc1	0.0179	0.67	0.0122		
Cn1c(-c2cc(=O)c(O)c[nH]2)nn(S(=O)(=O)NC(=O)N2C[C@H](NC(=O)/C(=N\OC(C)(C)C(=O)O)c3csc(N)n3)C2=O)c1=O	0.0149		0.0447		
CC1CN(c2cc(=O)[nH]c(NCc3cccc4ccccc34)n2)CCO1 (centres undefined)	0.024		0.013		
CNC1(c2ccccc2Cl)CCCCC1=O (centres undefined) [KETAMINE]	0.552			0.58	
C[C@H]([C@H](O)c1ccc(O)cc1)N1CCC(O)(c2ccccc2)CC1	0.608	0.91	0.681		
O=C(NCc1ccc(OCC(F)(F)F)nc1)C1c2ccccc2C(=O)N1CCc1ccccn1 (centres undefined)	0.371		0.0928		
CC(C)c1noc(C2CCN(c3ncnc(Nc4ccc(S(C)(=O)=O)cc4F)c3[N+](=O)[O-])CC2)n1	0.016		0.0099		
Cc1nc(C(C)C)c(-c2ccc([C@H]3CC[C@H](CC(=O)O)CC3)cc2)nc1C(N)=O	0.0119		0.0219		
CN[C@H]1CC[C@@H](c2ccc(Cl)c(Cl)c2)c2ccccc21 [SERTRALINE]	0.02	3.15	0.0146		
COC[C@@H](O)Cn1c(=O)cnn(-c2ccc(Cl)c(C(=O)NCC3(O)CCCCCC3)c2)c1=O	0.608	1.44	0.586		
Cc1ncc(C(N)=S)nc1-c1ccc([C@H]2CC[C@H](CC(=O)O)CC2)cc1	0.0099		0.028		
O=C(CCCN1CC[Si](O)(c2ccc(Cl)cc2)CC1)c1ccc(F)cc1	0.0544		0.0544		
Cc1nc(C)c(-c2ccc([C@H]3CC[C@H](CC(=O)NC(C)(C)C(=O)O)CC3)cc2)nc1C(N)=O	0.0251		0.0784		
NC(=O)c1cncc(-c2ccc([C@H]3CC[C@H](CCO)CC3)cc2)n1	0.013		0.028		

Structure (SMILES)	fraction unbound at 5 h [1]	logD ([2]; pH 7.4, LogD7.4)	fraction unbound at 5 h ([3]; PPB)	fraction unbound at 5 h [3]	logD ([2]; pH 7.4)
CC(C)(C)OC(=O)N[C@H](Cc1ccccc1C(F)(F)F)C(=O)NCc1nc2cccnc2n1Cc1ccccc1	0.002		0.0111		
CCN1CCC[C@H]1CNC(=O)c1cc(Br)cc(OC)c1OC	0.701	1.2	0.54		
Cc1cnc(-c2c(F)ccc(F)c2CCNC(=O)c2ccc(COCC(F)(F)F)nc2)cn1	0.28		0.0801		
CCCCc1nc(Cl)c(C(=O)O)n1Cc1ccc(-c2ccccc2-c2nn[nH]n2)cc1 [CARBOXYLIC ACID METABOLITE]	0.0022		0.0049		
Cc1nnc(-c2ccc(N3CCC(Oc4cc(F)ccc4Cl)CC3)nn2)o1	0.0082		0.0179		
Cc1ccc(S(=O)(=O)Nc2c(C(=O)NC3CCOCC3)c(C)nn2-c2ccccc2)cc1	0.089		0.0262		
Fc1ccc([C@@H]2CCNC[C@H]2COc2ccc3c(c2)OCO3)cc1 [PAROXETINE]	0.0532	1.78	0.101		
O=c1cc(N2CCOCC2)nc(NCc2c(Cl)cccc2Cl)[nH]1	0.0418		0.04		
O=C1Cc2cc(CCN3CCN(c4nsc5ccccc45)CC3)c(Cl)cc2N1 [ZIPRASIDONE]	0.003		0.001		
CN(C)CCOc1cc(NS(=O)(=O)c2c(Cl)cc(C(F)(F)F)cc2Cl)ccc1Cl [SB611812]	0.0024	2.99	0.0029		
O=C(NCc1ccc(OC(F)(F)F)cc1)C1c2ccccc2C(=O)N1C[C@@H]1CCCO1 (some centres undefined)	0.0606		0.0358		
Cc1ccc(S(=O)(=O)Nc2ccc3nc(C)oc3c2)cc1	0.051		0.0209		
Cc1cc(C)c(C)c(Cn2ccc3c(/C=N/NC(=O)c4ccc(O)c(C#N)c4)cccc32)c1C	0.0032		0.04		
O=c1cc(N2CCOCC2)nc(NCc2cccc(Cl)c2Cl)[nH]1	0.0179		0.0209		
CCC[C@H](c1ccc(C(=O)O)c(Oc2cccc(Cl)c2)c1)N1CCC[C@H](n2cc(C)c(=O)[nH]c2=O)C1	0.016		0.0119		
O=c1cc(N2CCOCC2)nc2n(Cc3cccc(Cl)c3)ccn12	0.11		0.101		
CC(C)NC[C@H](O)COc1cccc2ccccc12 [LEVOPROPRANOLOL]	0.204			0.139	
O=c1cc(Cn2c(C3CCC3)nc3nccnc32)c2ccc(F)c(F)c2[nH]1	0.16		0.201		
CC(Cc1ccccn1)N1C(=O)c2ccccc2C1C(=O)NCc1ccc(OC(F)(F)F)cc1 (centres undefined)	0.0366		0.0111		
Cc1cc(I)cc2c1NC(C(=O)O)C1CC=CC21 (centres undefined)	0.007		0.002		
N#Cc1cc(S(=O)(=O)Nc2ncc(Cl)s2)ccc1Oc1ccc(Cl)cc1-c1ccnn1C1CNC1	0.0142		0.0081		
